Experimental data reported in patent US20090005364A1, “Azole Derivatives With Antimuscarinic Activity” (priority 2004, published 2009).

Columns and labels:
human M2-receptors = biological target: T1, human M2-receptors (Homo sapiens, UniProt P08172); assay: radioligand binding assay, M2 receptor ([3H]-N-methyl scopolamine); settings: membranes of CHO-K1 cells expressing human M2; [3H]-N-methyl scopolamine 0.1-0.3 nM; 60 min, room temperature
T1 construct: expressed in transfected cells; host or cells: CHO-K1 clone cells; crude membrane fraction
T1 sequence (P08172 1-466): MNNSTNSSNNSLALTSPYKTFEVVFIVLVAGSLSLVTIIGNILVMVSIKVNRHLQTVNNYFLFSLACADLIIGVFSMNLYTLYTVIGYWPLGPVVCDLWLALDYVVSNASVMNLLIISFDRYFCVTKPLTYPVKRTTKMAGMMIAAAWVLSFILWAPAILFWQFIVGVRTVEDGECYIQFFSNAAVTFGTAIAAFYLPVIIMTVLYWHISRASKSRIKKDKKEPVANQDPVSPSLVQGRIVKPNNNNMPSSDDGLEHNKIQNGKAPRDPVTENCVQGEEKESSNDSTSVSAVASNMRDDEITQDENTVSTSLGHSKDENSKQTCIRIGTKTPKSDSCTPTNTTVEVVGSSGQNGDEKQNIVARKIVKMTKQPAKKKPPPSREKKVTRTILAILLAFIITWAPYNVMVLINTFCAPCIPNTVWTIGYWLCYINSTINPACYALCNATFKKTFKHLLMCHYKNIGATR
Description: (§1) Cell Lines and Membrane Preparations
(§2) CHO—K1 clone cells expressing the human M1, M2 or M3-receptors (Swissprot P11229, P08172, P20309 respectively) were harvested in Ca^++/Mg^++ free phosphate-buffered saline and collected by centrifugation at 1500 rpm for 3 min. The pellets were resuspended in ice cold buffer A (15 mM Tris-HCl pH 7.4, 2 mM MgCl2, 0.3 mM EDTA, 1 mM EGTA) and homogenized by a PBI politron (setting 5 for 15 s).
(§3) Radioligand Binding Conditions
(§4) The day of experiment, frozen membranes were resuspended in buffer C (50 mM Tris-HCl pH 7.4, 2.5 mM MgCl2, 1 mM EDTA). […] The non specific binding was determined in the presence of cold N-methyl scopolamine 10 μM. Samples (final volume 0.75 ml) were incubated at room temperature for 120 min for Ml, 60 min for M2 and 90 min for M3 binding assay. The reaction was terminated by rapid filtration through GF/B Unifilter plates and two washes (0.75 ml) with cold buffer C using a Packard Filtermate Harvester. Radioactivity on the filters was measured by a microplate scintillation counter TopCount NXT (Camberra Packard).

human M3-receptors = biological target: T2, human M3-receptors (Homo sapiens, UniProt P20309); assay: radioligand binding assay, M3 receptor ([3H]-N-methyl scopolamine); settings: membranes of CHO-K1 cells expressing human M3; [3H]-N-methyl scopolamine 0.1-0.3 nM; 90 min, room temperature
T2 construct: expressed in transfected cells; host or cells: CHO-K1 clone cells; crude membrane fraction
Description: as §1, §2, §3, §4

T2 sequence (P20309 whole entry): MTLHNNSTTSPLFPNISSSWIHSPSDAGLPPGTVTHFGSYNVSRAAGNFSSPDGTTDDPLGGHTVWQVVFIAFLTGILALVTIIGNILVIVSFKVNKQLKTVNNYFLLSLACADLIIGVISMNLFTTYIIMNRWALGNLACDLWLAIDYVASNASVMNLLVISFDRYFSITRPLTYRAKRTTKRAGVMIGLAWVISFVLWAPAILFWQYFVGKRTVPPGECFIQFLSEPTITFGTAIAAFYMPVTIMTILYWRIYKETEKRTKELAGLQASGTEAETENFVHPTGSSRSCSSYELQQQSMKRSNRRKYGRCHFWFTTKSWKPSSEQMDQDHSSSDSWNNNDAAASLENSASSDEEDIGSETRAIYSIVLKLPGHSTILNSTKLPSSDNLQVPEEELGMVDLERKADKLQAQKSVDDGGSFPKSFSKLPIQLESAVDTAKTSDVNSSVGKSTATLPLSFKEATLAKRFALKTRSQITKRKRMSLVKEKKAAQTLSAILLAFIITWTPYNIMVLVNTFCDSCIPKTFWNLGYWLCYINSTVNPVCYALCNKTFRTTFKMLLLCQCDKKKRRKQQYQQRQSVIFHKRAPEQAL

Ki (human M2-receptors) [nM]	Ki (human M3-receptors) [nM]	Structure (SMILES)
955		O=C1NC(c2ccc(F)cc2)(c2ccc(F)cc2)CN1C1CCN(Cc2cccc(Cl)c2)CC1 [Compound 18ab]
187		O=C1NC(c2cccs2)(c2cccs2)CN1C1CCN(Cc2cccc(F)c2)CC1 [Compound 18ad]
107		Cc1cccc(CN2CCC(N3CC(c4cccs4)(c4cccs4)NC3=O)CC2)c1 [Compound 18ag]
1140		O=C1NC(c2ccc(F)cc2)(c2ccc(F)cc2)CN1C1CCN(Cc2cccc(F)c2)CC1 [Compound 18an]
327		O=C1NC(c2ccccc2)(c2ccccc2)CN1C1CCN(Cc2cccc(Cl)c2)CC1 [Compound 18e]
224		Cc1cccc(CN2CCC(N3CC(c4ccccc4)(c4ccccc4)NC3=O)CC2)c1 [Compound 18i]
80.9	1.96	C[N+]1(CC(=O)c2cccs2)CC[C@@H](N2CC(c3ccc(F)cc3)(c3ccc(F)cc3)NC2=O)C1 (some centres unmarked) [Compound 19bp]
88.5	1.62	C[N+]1(CC(=O)c2cccs2)CC[C@@H](N2CC(c3ccc(F)cc3)(c3ccc(F)cc3)NC2=O)C1 (some centres unmarked) [Compound 19bq]
80.1		O=C1NC(c2ccccc2)(c2ccccc2)CN1C1CCN(Cc2ccccc2)CC1 [Compound 27a, 3-(1-benzyl-piperidin-4-yl)-5 5-diphenyl-imidazolidin-2-one]
73.3		O=C1NC(c2ccccc2)(C2CCCCC2)CN1C1CCN(Cc2ccccc2)CC1 (centres unmarked) [Compound 27c]
206		O=C1NC(c2ccc(F)cc2)(c2ccc(F)cc2)CN1C1CCN(Cc2ccccc2)CC1 [Compound 27h]
96.8		O=C1NC(c2cccs2)(c2cccs2)CN1C1CCN(Cc2ccccc2)CC1 [Compound 27i]
